# Test results: PubChem BioAssay (NCI)
#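 96-well plates; 48 h exposure; 5 concentrations. Endpoints by linear interpolation between flanking doses. Not reached: highest tested concentration assigned. Abbreviation: GI50, concentration required for 50% inhibition of growth. TGI marks complete inhibition of growth.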
# Experiments:
# Experiment in all cases: NCI-60 cell line screen, 48 h
# 786-0 renal = system: 786-0 renal
# A498 renal = system: A498 renal
# A549 NSCLC = system: A549 NSCLC
# ACHN renal = system: ACHN renal
# BT-549 breast = system: BT-549 breast
# CAKI-1 renal = system: CAKI-1 renal
# CCRF-CEM leukemia = system: CCRF-CEM leukemia
# COLO 205 colon = system: COLO 205 colon
# DU-145 prostate = system: DU-145 prostate
# EKVX NSCLC = system: EKVX NSCLC
# HCC-2998 colon = system: HCC-2998 colon
# HCT-116 colon = system: HCT-116 colon
# HCT-15 colon = system: HCT-15 colon
# HL-60(TB) leukemia = system: HL-60(TB) leukemia
# HOP-62 NSCLC = system: HOP-62 NSCLC
# HOP-92 NSCLC = system: HOP-92 NSCLC
# HS 578T breast = system: HS 578T breast
# HT29 colon = system: HT29 colon
# IGROV1 ovarian = system: IGROV1 ovarian
# K-562 leukemia = system: K-562 leukemia
# KM12 colon = system: KM12 colon
# LOX IMVI melanoma = system: LOX IMVI melanoma
# M14 melanoma = system: M14 melanoma
# MALME-3M melanoma = system: MALME-3M melanoma
# MCF7 breast = system: MCF7 breast
# MDA-MB-231 breast = system: MDA-MB-231 breast
# MDA-MB-435 = system: MDA-MB-435
# MOLT-4 leukemia = system: MOLT-4 leukemia
# NCI-H226 lung = system: NCI-H226 lung
# NCI-H23 lung = system: NCI-H23 lung
# NCI-H460 lung = system: NCI-H460 lung
# NCI-H522 lung = system: NCI-H522 lung
# OVCAR-3 ovarian = system: OVCAR-3 ovarian
# OVCAR-4 ovarian = system: OVCAR-4 ovarian
# OVCAR-5 ovarian = system: OVCAR-5 ovarian
# OVCAR-8 ovarian = system: OVCAR-8 ovarian
# PC-3 prostate = system: PC-3 prostate
# RPMI-8226 leukemia = system: RPMI-8226 leukemia
# RXF 393 renal = system: RXF 393 renal
# SF-268 CNS = system: SF-268 CNS
# SF-295 CNS = system: SF-295 CNS
# SF-539 CNS = system: SF-539 CNS
# SK-MEL-2 melanoma = system: SK-MEL-2 melanoma
# SK-MEL-28 melanoma = system: SK-MEL-28 melanoma
# SK-MEL-5 melanoma = system: SK-MEL-5 melanoma
# SK-OV-3 ovarian = system: SK-OV-3 ovarian
# SN12C renal = system: SN12C renal
# SNB-19 CNS = system: SNB-19 CNS
# SNB-75 CNS = system: SNB-75 CNS
# SR leukemia = system: SR leukemia
# SW-620 colon = system: SW-620 colon
# T-47D breast = system: T-47D breast
# TK-10 renal = system: TK-10 renal
# U251 CNS = system: U251 CNS
# UACC-257 melanoma = system: UACC-257 melanoma
# UACC-62 melanoma = system: UACC-62 melanoma
# UO-31 renal = system: UO-31 renal
# NCI/ADR-RES ovarian = system: NCI/ADR-RES ovarian
structure (smiles),measurement,setting,value
CC(c1ccccc1)N1C(=O)CSC1=S (stereo not given),GI50,786-0 renal,628 nM
same,TGI,786-0 renal,> 100 µM
same,GI50,A498 renal,7.32 µM
same,TGI,A498 renal,55.3 µM
same,GI50,A549 NSCLC,4670 nM
same,TGI,A549 NSCLC,> 59.1 µM
same,GI50,ACHN renal,3610 nM
same,TGI,ACHN renal,> 100 µM
same,GI50,BT-549 breast,2460 nM
same,TGI,BT-549 breast,36 µM
same,GI50,CAKI-1 renal,1330 nM
same,GI50,CCRF-CEM leukemia,941 nM
same,TGI,CCRF-CEM leukemia,> 100 µM
same,GI50,COLO 205 colon,300 nM
same,TGI,COLO 205 colon,1080 nM
same,GI50,DU-145 prostate,379 nM
same,TGI,DU-145 prostate,3.66 µM
same,GI50,EKVX NSCLC,7.57 µM
same,TGI,EKVX NSCLC,> 100 µM
same,GI50,HCC-2998 colon,3.08 µM
same,TGI,HCC-2998 colon,8.86 µM
same,GI50,HCT-116 colon,137 nM
same,TGI,HCT-116 colon,1380 nM
same,GI50,HCT-15 colon,659 nM
same,TGI,HCT-15 colon,> 100 µM
same,GI50,HL-60(TB) leukemia,140 nM
same,TGI,HL-60(TB) leukemia,1450 nM
same,GI50,HOP-62 NSCLC,526 nM
same,TGI,HOP-62 NSCLC,14.4 µM
same,GI50,HOP-92 NSCLC,4290 nM
same,TGI,HOP-92 NSCLC,> 100 µM
same,GI50,HS 578T breast,779 nM
same,GI50,HT29 colon,362 nM
same,GI50,IGROV1 ovarian,129 nM
same,TGI,IGROV1 ovarian,697 nM
same,GI50,K-562 leukemia,346 nM
same,TGI,K-562 leukemia,> 100 µM
same,GI50,KM12 colon,49.5 nM
same,TGI,KM12 colon,438 nM
same,GI50,LOX IMVI melanoma,446 nM
same,TGI,LOX IMVI melanoma,19.5 µM
same,GI50,M14 melanoma,332 nM
same,TGI,M14 melanoma,2990 nM
same,GI50,MALME-3M melanoma,7.39 µM
same,TGI,MALME-3M melanoma,> 100 µM
same,GI50,MCF7 breast,58.3 nM
same,TGI,MCF7 breast,13.7 µM
same,GI50,MDA-MB-231 breast,463 nM
same,TGI,MDA-MB-231 breast,> 23.8 µM
same,GI50,MDA-MB-435,319 nM
same,TGI,MDA-MB-435,7.21 µM
same,GI50,MOLT-4 leukemia,1750 nM
same,TGI,MOLT-4 leukemia,> 100 µM
same,GI50,NCI-H226 lung,3.56 µM
same,TGI,NCI-H226 lung,> 100 µM
same,GI50,NCI-H23 lung,6.82 µM
same,TGI,NCI-H23 lung,> 46 µM
same,GI50,NCI-H460 lung,970 nM
same,GI50,NCI-H522 lung,114 nM
same,TGI,NCI-H522 lung,3.81 µM
same,GI50,OVCAR-3 ovarian,232 nM
same,TGI,OVCAR-3 ovarian,1230 nM
same,GI50,OVCAR-4 ovarian,1360 nM
same,TGI,OVCAR-4 ovarian,> 100 µM
same,GI50,OVCAR-5 ovarian,4.05 µM
same,TGI,OVCAR-5 ovarian,49.4 µM
same,GI50,OVCAR-8 ovarian,2000 nM
same,TGI,OVCAR-8 ovarian,> 100 µM
same,GI50,PC-3 prostate,989 nM
same,TGI,PC-3 prostate,> 100 µM
same,GI50,RPMI-8226 leukemia,382 nM
same,TGI,RPMI-8226 leukemia,34.2 µM
same,GI50,RXF 393 renal,747 nM
same,TGI,RXF 393 renal,6.27 µM
same,GI50,SF-268 CNS,1010 nM
same,TGI,SF-268 CNS,45.7 µM
same,GI50,SF-295 CNS,2860 nM
same,GI50,SF-539 CNS,228 nM
same,GI50,SK-MEL-2 melanoma,604 nM
same,TGI,SK-MEL-2 melanoma,12.4 µM
same,GI50,SK-MEL-28 melanoma,3.52 µM
same,TGI,SK-MEL-28 melanoma,54.1 µM
same,GI50,SK-MEL-5 melanoma,1860 nM
same,TGI,SK-MEL-5 melanoma,9.83 µM
same,GI50,SK-OV-3 ovarian,2390 nM
same,TGI,SK-OV-3 ovarian,> 81.8 µM
same,GI50,SN12C renal,701 nM
same,TGI,SN12C renal,> 100 µM
same,GI50,SNB-19 CNS,302 nM
same,TGI,SNB-19 CNS,1100 nM
same,GI50,SNB-75 CNS,2890 nM
same,TGI,SNB-75 CNS,> 22.2 µM
same,GI50,SR leukemia,109 nM
same,TGI,SR leukemia,> 100 µM
same,GI50,SW-620 colon,418 nM
same,TGI,SW-620 colon,> 38.5 µM
same,GI50,T-47D breast,4100 nM
same,TGI,T-47D breast,70.6 µM
same,GI50,TK-10 renal,8.78 µM
same,TGI,TK-10 renal,> 93.3 µM
same,GI50,U251 CNS,400 nM
same,TGI,U251 CNS,16.5 µM
same,GI50,UACC-257 melanoma,3.22 µM
same,TGI,UACC-257 melanoma,33.8 µM
same,GI50,UACC-62 melanoma,330 nM
same,TGI,UACC-62 melanoma,10.7 µM
same,GI50,UO-31 renal,5.73 µM
same,TGI,UO-31 renal,> 83.5 µM
CCOC(=O)c1cc(C(=O)c2cc(OC)cc(OC)c2)n2nc(C)ccc12,GI50,786-0 renal,523 nM
same,TGI,786-0 renal,> 100 µM
same,GI50,A498 renal,0.388 µM
same,TGI,A498 renal,> 100 µM
same,GI50,A549 NSCLC,766 nM
same,TGI,A549 NSCLC,> 100 µM
same,GI50,ACHN renal,731 nM
same,TGI,ACHN renal,> 100 µM
same,GI50,BT-549 breast,1990 nM
same,TGI,BT-549 breast,> 100 µM
same,GI50,CCRF-CEM leukemia,348 nM
same,TGI,CCRF-CEM leukemia,> 100 µM
same,GI50,DU-145 prostate,906 nM
same,TGI,DU-145 prostate,> 100 µM
same,GI50,EKVX NSCLC,0.975 µM
same,TGI,EKVX NSCLC,> 100 µM
same,GI50,HCC-2998 colon,3.34 µM
same,TGI,HCC-2998 colon,> 100 µM
same,GI50,HCT-116 colon,331 nM
same,TGI,HCT-116 colon,> 100000 nM
same,GI50,HCT-15 colon,280 nM
same,TGI,HCT-15 colon,> 100 µM
same,GI50,HL-60(TB) leukemia,248 nM
same,TGI,HL-60(TB) leukemia,797 nM
same,GI50,HOP-62 NSCLC,691 nM
same,TGI,HOP-62 NSCLC,> 100 µM
same,GI50,HOP-92 NSCLC,446 nM
same,TGI,HOP-92 NSCLC,> 100 µM
same,GI50,HS 578T breast,284 nM
same,TGI,HS 578T breast,> 100 µM
same,GI50,HT29 colon,401 nM
same,TGI,HT29 colon,> 100 µM
same,GI50,IGROV1 ovarian,943 nM
same,TGI,IGROV1 ovarian,> 100000 nM
same,GI50,KM12 colon,254 nM
same,TGI,KM12 colon,> 100000 nM
same,GI50,LOX IMVI melanoma,493 nM
same,TGI,LOX IMVI melanoma,> 100 µM
same,GI50,M14 melanoma,251 nM
same,TGI,M14 melanoma,> 100000 nM
same,GI50,MCF7 breast,313 nM
same,TGI,MCF7 breast,> 100 µM
same,GI50,MDA-MB-231 breast,1700 nM
same,TGI,MDA-MB-231 breast,> 100 µM
same,GI50,MOLT-4 leukemia,527 nM
same,TGI,MOLT-4 leukemia,> 100 µM
same,GI50,NCI-H226 lung,> 100 µM
same,TGI,NCI-H226 lung,> 100 µM
same,GI50,NCI-H23 lung,1.29 µM
same,TGI,NCI-H23 lung,> 100 µM
same,GI50,NCI-H460 lung,365 nM
same,TGI,NCI-H460 lung,> 100 µM
same,GI50,NCI-H522 lung,303 nM
same,TGI,NCI-H522 lung,> 100 µM
same,GI50,NCI/ADR-RES ovarian,308 nM
same,TGI,NCI/ADR-RES ovarian,14.8 µM
same,GI50,OVCAR-3 ovarian,289 nM
same,TGI,OVCAR-3 ovarian,2110 nM
same,GI50,OVCAR-4 ovarian,1450 nM
same,TGI,OVCAR-4 ovarian,> 100 µM
same,GI50,OVCAR-5 ovarian,2.7 µM
same,TGI,OVCAR-5 ovarian,> 100 µM
same,GI50,OVCAR-8 ovarian,1090 nM
same,TGI,OVCAR-8 ovarian,> 100 µM
same,GI50,PC-3 prostate,317 nM
same,TGI,PC-3 prostate,> 100 µM
same,GI50,RXF 393 renal,239 nM
same,TGI,RXF 393 renal,3.16 µM
same,GI50,SF-268 CNS,676 nM
same,TGI,SF-268 CNS,> 100 µM
same,GI50,SF-295 CNS,311 nM
same,TGI,SF-295 CNS,38.3 µM
same,GI50,SF-539 CNS,349 nM
same,TGI,SF-539 CNS,3.02 µM
same,GI50,SK-MEL-2 melanoma,494 nM
same,TGI,SK-MEL-2 melanoma,> 100 µM
same,GI50,SK-MEL-28 melanoma,> 100 µM
same,TGI,SK-MEL-28 melanoma,> 100 µM
same,GI50,SK-MEL-5 melanoma,276 nM
same,TGI,SK-MEL-5 melanoma,> 100 µM
same,GI50,SK-OV-3 ovarian,878 nM
same,TGI,SK-OV-3 ovarian,> 100 µM
same,GI50,SN12C renal,692 nM
same,TGI,SN12C renal,> 100 µM
same,GI50,SNB-19 CNS,752 nM
same,TGI,SNB-19 CNS,> 100000 nM
same,GI50,SNB-75 CNS,384 nM
same,TGI,SNB-75 CNS,> 100 µM
same,GI50,SR leukemia,75.9 nM
same,TGI,SR leukemia,> 100 µM
same,GI50,SW-620 colon,280 nM
same,TGI,SW-620 colon,> 100 µM
same,GI50,T-47D breast,501 nM
same,TGI,T-47D breast,> 100 µM
same,GI50,TK-10 renal,> 100 µM
same,TGI,TK-10 renal,> 100 µM
same,GI50,U251 CNS,549 nM
same,TGI,U251 CNS,> 100 µM
same,GI50,UACC-62 melanoma,477 nM
same,TGI,UACC-62 melanoma,> 100 µM
same,GI50,UO-31 renal,0.698 µM
same,TGI,UO-31 renal,> 100 µM
